Laboratory results reported in patent publication US8969524B2, “FVIII peptides for immune tolerance induction and immunodiagnostics” (Baxter International Inc., priority 2010, dated 2015).

system: FVIII-specific T cell hybridomas (peptides presented by HLA-DRB1*1501); test: Peptide specificity of FVIII-specific T cell hybridomas (IL-2 release); format: cell-based, mouse; details: during Factor VIII replacement therapy or connected with acquired hemophilia
Excerpt: To better mimic the human MHC class II molecule for identifying FVIII peptides, a mouse model was developed for hemophilia A with a chimeric MHC class II molecule carrying a human HLA-DRB1*1501 specific binding site. This mouse was backcrossed to a mouse carrying a complete knock out of all murine MHC class II genes (Reipert et al., J. Thromb. Haemost. 7 Suppl. 1:92-97 (2009)). In this new transgenic mouse model, all CD4^+ T cell responses are driven by the human MHC class II molecule. This mouse model was used to identify FVIII peptides presented by HLA-DRB1*1501 that drive anti-FVIII immune responses in these mice.
Hemophilic HLA-DRB15 E17 mice: HLA-DRB1*1501^+/− E17^−/− mice as described in Reipert et al., J. Thromb. Haemost. 7 Suppl. 1:92-97 (2009). Mice were all male and aged 8 to 12 weeks at the beginning of the experiment.
Immunization with human recombinant FVIII: HLA-DRB1*1501^+/− E17^−/− mice received between 4 and 8 intravenous or subcutaneous doses of 0.2 μg or 1 μg human rFVIII at weekly intervals. rFVIII was diluted in the original formulation buffer or Dulbecco phosphate buffered saline containing calcium and magnesium (DPBS; Sigma Aldrich, St. Louis, Mo., USA).
Cell preparation: Spleens were obtained 3 to 7 days after the last immunization with rFVIII. Spleen cells were minced and passed through a 70 μm cell strainer (Becton Dickinson, Franklin Lakes, N.J.). Single cells were collected in culture medium: RPMI 1640 medium (Gibco, Invitrogen, Life Technologies, Carlsbad, Calif.) supplemented with 10% preselected fetal calf serum (FCS; Hyclone, Logan, Utah), 2 mM L-glutamine, 100 U/mL penicillin/streptomycin (both from Gibco), and 5×10^−5 M mercaptoethanol (Sigma-Aldrich). Erythrocytes were lysed using hypotonic buffer (pH 7.2) composed of 0.15 M ammonium chloride, 10 mM potassium bicarbonate (both from Merck, Darmstadt, Germany) and 0.1 mM ethylene-diaminetetraacetic acid (Sigma-Aldrich). Cells were washed and counted using a Coulter Counter Z1. […]

| Sequence | involvement in the immune response mounted against FVIII protein |
| --- | --- |
| QANRSPLPIAKVSSFPSIRPIYLT (listed as Homo sapiens) [FVIII^1401-1424] | involved in the immune response |
| AWPKMHTVNGYVNRSLPGLIG (listed as Homo sapiens) [FVIII^246-266] | involved in the immune response |
| TVVITLKNMASHPVSLHAVGV (listed as Homo sapiens) [FVIII^102-122] | involved in the immune response |
